From patent publication US7465783B2, “Plant peptide with antimicrobial activity” (Centre National de la Recherche Scientifique, priority 2002, dated 2008)
Ends that are not written are not given here.

Key:
Type in all cases: cell-based
[1] = system: Xanthomonas campestris pv campestris strain 8004; assay: Antimicrobial (bacteriostatic) activity, peptide drops on TOPagar lawn
Procedure: (§1) Toxicity experiments on the peptide of 25 amino acids (SUP 25) purified in the preceding example on different bacteria were carried out. The different bacteria are cultured in 5 ml of LB medium or of medium appropriate to the strain, and then sedimented by centrifugation at 3000 g, and finally taken up in a volume of LB identical to the volume of bacteria. 50 μl of bacteria are inoculated into 9 ml of liquid TOPagar (LB+7 g/l of bactoagar) at 48° C. and rapidly poured into a square LB agar dish of 10 cm on each side. The drops of 10 μl of different concentrations of peptides are deposited on the solidified ToPagar. The dish is cultured for 16 hours. Cecropin A at 20 μM, an insect peptide recognized as having antibacterial activity, serves as a positive control.

[2] = system: Escherichia coli Strain DH5α; assay: as above
Procedure: as §1

[3] = system: Pseudomonas syringae pv tomato strain DC3000; assay: as above
Procedure: as §1

[4] = system: protoplasts of Arabidopsis thaliana
From the text: This experiment has the aim of determining whether the effect of the peptide on the viability of the protoplasts of Arabidopsis thaliana corresponds to the cell necrosis or else to the implementation of the process of programmed cell death or apoptosis.
Apoptosis is distinguished from necrosis by a rigorous staging of death, punctuated by a set of genetically controlled events (Vaux and Korsmeyer (Cell, 1999, 96: 245-254); Pennell and Lamb (Plant Cell, 1997, 9: 1157-1168); Greenberg (P.N.A.S., 1996, 93: 12094-12097)). […] The TUNEL reaction allows the free 3′OH ends present in great quantity in the nuclei whose DNA is fragmented in the course of the process of apoptosis to be labeled.
The external application of the peptide of 25 amino acids to protoplasts of Arabidopsis thaliana at 5 μM for 2 hours allows an increase in the population of positive TUNEL protoplasts to be observed (FIG. 5B). 4 times more nuclei show DNA fragmentation characteristics with respect to the control.

Substance | Cecropin A 20 μM (positive control, antibacterial activity) [1] | Cecropin A 20 μM (positive control, antibacterial activity) [2] | Cecropin A 20 μM (positive control, antibacterial activity) [3] | cytotoxic activity (fragmentation of nuclear DNA, TUNEL), in words [4]
Cecropin A [reference compound] | Positive | Positive | Positive | –
MWWLVGLTPVELIHLCAFRERLSHL [Pep1S] | – | – | – | no longer has cytotoxic activity
MWWLVGLTPVELIHLSAFRERLSHL [Pep2S] | – | – | – | has a cytotoxic activity
